According to patent publication US10626115B2, “Fused pyrimidinone and triazinone derivatives containing bridged nitrogen, their process of preparation and their therapeutic uses as antifungal and/or antiparasitic agents” (UNIVERSITE DE NANTES, priority 2015, dated 2020):
Converted amounts (≈) assume the structure as drawn.

How the values were obtained:
[1] = tested on: A. fumigatus itraconazole-resistant strain ASFU23; experiment: Antifungal susceptibility, spectrofluorimetric microdilution, ASFU23; type: cell-based, Aspergillus fumigatus
Description: (§1) Eleven strains of A. fumigatus with various itraconazole susceptibility were used: • Five susceptible strains: ASFU7, ASFU35A, ASFU38A, ASFU76 and ASFU78. • Six itraconazole-resistant strains: ASFU77 (erg11 mutation), ASFU13, ASFU17, ASFU19, ASFU20, ASFU23.
(§2) Antifungal susceptibility was evaluated with a spectrofluorimetric microdilution method. MIC was the concentration that was able to inhibit 80% of fluorescence measured in the control wells.

[2] = tested on: A. fumigatus itraconazole-resistant strain ASFU77 (erg11 mutation); experiment: Antifungal susceptibility, spectrofluorimetric microdilution, ASFU77; type: cell-based, Aspergillus fumigatus
Description: as §1, §2

[3] = tested on: A. fumigatus susceptible strain ASFU78; experiment: Antifungal susceptibility, spectrofluorimetric microdilution, ASFU78; type: cell-based, Aspergillus fumigatus; settings: Aspergillus fumigatus, read-out: MIC values ASFU78
Description: as §1, §2

[4] = tested on: A. fumigatus itraconazole-resistant strain ASFU17; experiment: Antifungal susceptibility, spectrofluorimetric microdilution, ASFU17; type: cell-based, Aspergillus fumigatus; settings: Aspergillus fumigatus, read-out: MIC values ASFU17
Description: as §1, §2

[5] = tested on: A. fumigatus susceptible strain ASFU7; experiment: Antifungal susceptibility, spectrofluorimetric microdilution, ASFU7; type: cell-based, Aspergillus fumigatus; settings: Aspergillus fumigatus, read-out: MIC values ASFU7
Description: as §1, §2

[6] = tested on: A. fumigatus susceptible strain ASFU38A; experiment: Antifungal susceptibility, spectrofluorimetric microdilution, ASFU38A; type: cell-based, Aspergillus fumigatus; settings: Aspergillus fumigatus, read-out: MIC values ASFU38A
Description: as §1, §2

[7] = tested on: Candida albicans strain (CAAL93); experiment: Murine systemic candidiasis; type: in vivo; settings: neutropenic Swiss mice, CAAL93 i.v., 10 mg/kg per os once a day for 5 days
Description: Transiently neutropenic female Swiss mice were used for experiments on systemic candidiasis and invasive aspergillosis.
Mice were inoculated intravenously with a Candida albicans strain (CAAL93). Treatment was administrated once a day (10 mg/kg per os) for 5 days. […] Fungal burden of the kidney was evaluated in dead animals during the experimentation or in animals sacrificed at the end of the experimentation.

[8] = tested on: A. fumigatus itraconazole-resistant strain ASFU20; experiment: Antifungal susceptibility, spectrofluorimetric microdilution, ASFU20; type: cell-based, Aspergillus fumigatus
Description: as §1, §2

[9] = tested on: A. fumigatus itraconazole-resistant strain ASFU19; experiment: Antifungal susceptibility, spectrofluorimetric microdilution, ASFU19; type: cell-based, Aspergillus fumigatus; settings: Aspergillus fumigatus, read-out: MIC values ASFU19
Description: as §1, §2

[10] = tested on: A. fumigatus susceptible strain ASFU76; experiment: Antifungal susceptibility, spectrofluorimetric microdilution, ASFU76; type: cell-based, Aspergillus fumigatus; settings: Aspergillus fumigatus, read-out: MIC values ASFU76
Description: as §1, §2

[11] = tested on: fluconazole-susceptible C. albicans strain: CAAL93; experiment: Antifungal susceptibility, spectrofluorimetric microdilution, CAAL93; type: cell-based; settings: Candida albicans, read-out: MIC values CAAL93
Description: (§3) Eight strains of Candida spp. with various azoles-susceptibilities were used: • One fluconazole-susceptible C. albicans strain: CAAL93 • Two fluconazole-resistant C. albicans strains: CAAL111 (efflux pump) and CAAL117 (erg11 mutations+voriconazole-resistant) • five fluconazole-resistant Candida non albicans strains: C. krusei (CAKR7, CAKR8), C. glabrata (CAGL2), C. parapsilosis s.l. (CAPA1, CAPA2).
(§4) Antifungal susceptibility was evaluated with a spectrofluorimetric microdilution method.

Hela Human cell line = experiment: Cytotoxicity on HeLa cells; type: cell-based; settings: 100 μM
Description: Hela Human cell line was used in view to evaluate cytotoxicity. It was evaluated with a spectrofluorimetric microdilution method. IC50 was the concentration that was able to inhibit 50% of fluorescence measured in the control wells.

[12] = tested on: A. fumigatus susceptible strain ASFU35A; experiment: Antifungal susceptibility, spectrofluorimetric microdilution, ASFU35A; type: cell-based, Aspergillus fumigatus; settings: Aspergillus fumigatus, read-out: MIC values ASFU35A
Description: as §1, §2

[13] = tested on: A. fumigatus itraconazole-resistant strain ASFU13; experiment: Antifungal susceptibility, spectrofluorimetric microdilution, ASFU13; type: cell-based, Aspergillus fumigatus
Description: as §1, §2

[14] = tested on: fluconazole-resistant C. krusei (CAKR8); experiment: microbe, parasite or virus in culture; type: cell-based; settings: Pichia kudriavzevii, read-out: MIC values CAKR8
Description: as §3, §4

[15] = tested on: fluconazole-resistant C. albicans strain CAAL117 (erg11 mutations+voriconazole-resistant); experiment: microbe, parasite or virus in culture; type: cell-based
Description: as §3, §4

[16] = tested on: fluconazole-resistant C. krusei (CAKR7); experiment: microbe, parasite or virus in culture; type: cell-based; settings: Pichia kudriavzevii, read-out: MIC values CAKR7
Description: as §3, §4

[17] = tested on: fluconazole-resistant C. glabrata (CAGL2); experiment: microbe, parasite or virus in culture; type: cell-based; settings: Nakaseomyces glabratus, read-out: MIC values CAGL2
Description: as §3, §4

[18] = tested on: fluconazole-resistant C. albicans strain CAAL111 (efflux pump); experiment: microbe, parasite or virus in culture; type: cell-based; settings: Candida albicans, read-out: MIC values CAAL111
Description: as §3, §4

CRL:(WI) rats = experiment: Acute oral toxicity study in rats; type: in vivo
Description: The single-dose oral toxicity of compound 51 was performed according to the acute toxic class method (OECD 423 and Commission Regulation (EC) No 440/2008 of 30 May 2008, B.1.Tris) in CRL:(WI) rats.
Two groups of three female CRL:(WI) rats were treated with the test item at a dose level of 300 mg/kg bw (Group 1 and Group 2).
A single oral treatment was carried out by gavage for each animal after an overnight food withdrawal. Food was made available again 3 hours after the treatment. The test item was administered formulated in DMSO at a concentration of 30 mg/mL at a dose volume of 10 mL/kg bw.
Initially, three females (Group 1) were treated at a dose level of 300 mg/kg bw. As no mortality was observed, a confirmatory group (Group 2) was treated at the same dose level.
Clinical observations were performed at 30 minutes, 1, 2, 3, 4 and 6 hours after dosing and daily for 14 days thereafter. Body weight was measured on days −1, 0 and 7 and before necropsy. All animals were subjected to a necropsy and a macroscopic examination

## COc1ccc(-c2cc3cnn([C@H](C)[C@](O)(Cn4cncn4)c4ccc(F)cc4F)c(=O)n3c2)cc1 [Compound 51, 3-[(1R,2R)-2-(2,4-Difluorophenyl)-2-hydroxy-1-methyl-3-(1,2,4-triazol-1-yl)propyl]-7-(4-methoxyphenyl)-3H-pyrrolo[1,2-d][1,2,4]triazin-4-one]
[1]
  activity against ITRA-resistant isolate ASFU23, in words: active
[1]; Aspergillus fumigatus, read-out: MIC values ASFU23
  MIC: 1.92 µg/mL (≈ 3.9 µM)
[2]
  MIC values against ITRA-resistant isolate carrying M220T mutation (ASFU77), in words: in the micromolar range
[2]; Aspergillus fumigatus, read-out: MIC values ASFU77
  MIC: 6.6 ± 0.24 µg/mL (≈ 13.4 µM)
[3]
  MIC: 6.01 ± 0.48 µg/mL (≈ 12.2 µM)
[4]
  MIC: > 49 µg/mL
[5]
  MIC: 2.21 ± 0.09 µg/mL (≈ 4.49 µM)
[6]
  MIC: 5.84 ± 0.2 µg/mL (≈ 11.9 µM)
[7]; 28 days (compound 51, 14 days), p<0.05
  survival compared with the non-treated group: significant longer survival
[7]; p<0.05 (compound 51 p<0.001)
  fungal burden of the kidney: most active
[8]
  activity against ITRA-resistant isolate ASFU20, in words: active
[8]; Aspergillus fumigatus, read-out: MIC values ASFU20
  MIC: 3.14 µg/mL (≈ 6.38 µM)
[9]
  MIC: > 49 µg/mL
[10]
  MIC: 6.52 ± 0.16 µg/mL (≈ 13.2 µM)
[11]
  MIC: < 0.001 µg/mL
Hela Human cell line
  cytotoxic effect at the higher concentration used: didn't show any cytotoxic effect
[12]
  MIC: 6.08 ± 0.29 µg/mL (≈ 12.3 µM)
[13]
  activity against ITRA-resistant isolate ASFU13, in words: active
[13]; Aspergillus fumigatus, read-out: MIC values ASFU13
  MIC: 2.03 µg/mL (≈ 4.12 µM)
[14]
  MIC: 0.081 ± 0.009 µg/mL (≈ 0.164 µM)
[15]; Candida albicans, read-out: MIC values CAAL117
  MIC: 0.018 ± 0.002 µg/mL (≈ 0.0365 µM)
[15]; compared with voriconazole
  fold more active than voriconazole against CAAL117: 100 fold
[16]
  MIC: 0.062 ± 0.032 µg/mL (≈ 0.126 µM)
[17]
  MIC: 0.017 ± 0.003 µg/mL (≈ 0.0345 µM)
[18]
  MIC: < 0.001 µg/mL
CRL:(WI) rats; female CRL:(WI) rats, single oral gavage
  acute oral LD50: above 300 mg/kg bw
CRL:(WI) rats; female, CRL:(WI), rat, in vivo, po, 14 days
  GHS ranking for acute oral exposure: Category 4
CRL:(WI) rats; rat, in vivo, po, 300 mg/kg
  body weight gains: no indication of a test item-related effect
  clinical observations: hunched back and slightly decreased activity
  mortality: did not cause mortality
